We go through 2 compounds from patent publication US20030053952A1, “Therapeutic tool for vascular diseases” (Yasumi UCHIDA, priority 2001, published 2003).

Entries after “also recorded” stand apart in the source; their conditions may differ.

The test system of data set [1] is vascular progenitor cells. The data set can be described thus: Grafting of dye-eluting artificial grafts to canine common carotid artery (percentage stenosis, progenitor cell count). The settings on record: dye-eluting artificial graft, 3 months after grafting. The data set is classed as in vivo, beagle dogs. From the text: In anesthetized beagle dogs, the bilateral sides of the neck were incised to expose both right and left common carotid arteries. An 8 F sheath was introduced into the right femoral artery through which a 8 F catheter was introduced into the aortic arch for angiography of the carotid arteries. A dye-eluting artificial graft was sutured to the common carotid arteries in side to end fashion to make a shunt between the right and left common carotid arteries. Then, a segment of right carotid artery proximal to and that of left distal to anastomoses were ligatured. Thus, the blood drained from the left to the right common carotid artery. Similarly in other group, grafts coated with bionate or Sanpren without dye were sutured to the arteries as control group. The dogs were cared for 3 months according to the guideline and angiography was repeated. Percentage stenosis of the sutured portion was compared between the dye and control groups. After cardiac arrest as mentioned above, the grafts and arteries were removed and were used for microscopic examinations.

Data set [2] concerns vascular progenitor cells. The data set can be described thus: Implantation of dye-eluting stents into canine coronary artery (percentage stenosis, angioscopy, progenitor cell count). The format is in vivo, beagle dogs. Particulars: for Number of cells (250 × 250 μm^2), Adventitia / Number of cells (250 × 250 μm^2), Intima / Number of cells (250 × 250 μm^2), Media: dye-eluting stent, stented coronary segment, one month after implantation. Here is the method: Beagle dogs of either sex was anesthetized with pentobarbital sodium (25 mg/kg, i.v.) and trachea was intubated for artificial respiration with air. The right side of the neck was incised longitudinally to expose right common carotid artery. An 8F sheath was introduced into the artery through which an 8F guiding catheter was introduced into the left coronary artery. After coronary angiography, a balloon catheter clinically used for PTCA was introduced to dilate anterior descending artery. Then, a balloon catheter with a dye-eluting stent on it was introduced into the dilated segment of left anterior descending artery and it was inflated at 9 atms to implant the stent. After recovery from anesthesia, the dogs were cared according the guideline of Jikei University School of Medicine. One month later, the dogs were anesthetized again and coronary angiography and angioscopy (Uchida Y: Coronary Angioscopy, Futura Publishing Co, NY, 2000) were performed to examine the changes in the stented coronary segment. […] Thereafter, the dogs were sacrificed with intracoronary pentobarbital and the heart was removed. The heart was fixed with 10% hormaldehyde solution for microscopic examination.
The coronary angiograms were used for calibration of the percentage stenosis, namely (diameter before stent implantation-minimum luminal diameter/diameter before stent implantation)×100 of the narrowest portion (minimum luminal diameter) in the stent and was compared. Student's t test was used for statistical analysis and when P<0.05, the value was considered significant.
The stented coronary segment was removed and cut into slice in 5 μm in thickness. The slices were stained with beta-actin antibody and the number of vascular progenitor cells per unit area was counted and was compared between the dye and control groups.

Data set [3] can be described thus: Preliminary in vitro elution of dye from double-layer coated stent immersed in water. The format is physicochemical. Here is the method:
a) A soft polycarbonate urethane with risin bionate (Bionate 80A, Polimertech, USA) was used. Evans blue powder was dissolved in the bionate to make 20% Evans blue solution. A commercially available coronary stent (NIR stent, 3 mm×12 mm or Palmatz-Schatz stent, 3 mm×12 mm) was immersed into the solution for 10 min to form slowly eluting inner layer. Then, the stent was dried at room temperature. Evans blue powder was dissolved in distilled water to make 20% solution. The same stent was immersed into the solution for 10 min to make rapidly eluting outer layer. The stent was dried at room temperature. Then, the stent was sterilized with ethylene oxide gas. In the preliminary experiment in vitro, Evans blue began to elute from the outer layer immediately after and ceased to elute within 60 min after immersion into water.

For data set [4], the system named is vascular progenitor cells. Put plainly: Local delivery of dyes by porous balloon into balloon-injured coronary artery; count of migrated vascular progenitor cells. The format is in vivo, beagle dogs. Particulars: dogs. The method, then:
Adult beagle dogs of either sexes weighing from 7 to 12 kg were anesthetized with pentobarbital sodium (25-30 mg/kg, i.v.) and the trachea was intubated for artificial respiration with air. The right side of the neck was longitudinally incised to expose the right common carotid artery and an 8 F sheath was introduced, through which an 8F guiding catheter was introduced into the left coronary ostium for angiography. After angiography, a balloon catheter (2.5 mm×20 mm) was introduced through the guiding catheter into the middle to distal segment of either the anterior descending or circumflex artery. Then, the balloon was inflated at 9 atms to
dilate the segment to induced disruption of the endothelium and internal elastic lamina. The balloon catheter was replaced by a porous balloon catheter (3 mm×20 mm) with multiple pores in the balloon (Clinical Supply Co, Gifu, Japan) for local delivery of dyes. Thereafter, 0.2 ml of 5% Evans blue saline solution was injected through the porous balloon into the dilated segment at 3 atms in 6 dogs and 0.5 ml of 5% Ethidium bromide saline solution
was injected similarly in 5 dogs. […] The dilated coronary segment and its surrounding tissues were removed and sliced, vascular progenitor cells were stained with beta-smooth muscle actin antibody (DAKO EPOS, Glostrup, Denmark) and the number of vascular progenitor cells/250×250 μm^2 was counted.

For the compound `CC[n+]1c(-c2ccccc2)c2cc(N)ccc2c2ccc(N)cc21` [Ethidium bromide], the “Number of cells (250 × 250 μm^2), vascular progenitor cells at the anastomosed portion of the common carotid artery” value in data set [1] is listed as 11.1 ± 3.1 /250 × 250 μm^2. Besides, in data set [2], the “Number of cells (250 × 250 μm^2), Adventitia” value is 21.3 ± 9.9 /250 × 250 μm^2; the “Number of cells (250 × 250 μm^2), Intima” value is recorded as 8.3 ± 3.7 /250 × 250 μm^2; the “Number of cells (250 × 250 μm^2), Media” value is given as 9.6 ± 5.0 /250 × 250 μm^2.

Turning to `Cc1cc(-c2ccc(/N=N/c3ccc4c(S(=O)(=O)O)cc(S(=O)(=O)O)c(N)c4c3O)c(C)c2)ccc1/N=N/c1ccc2c(S(=O)(=O)O)cc(S(=O)(=O)O)c(N)c2c1O` [Evans blue], the “Number of cells (250 × 250 μm^2), vascular progenitor cells at the anastomosed portion of the common carotid artery” value in data set [1] is on record as 13.4 ± 4.0 /250 × 250 μm^2. For the same compound, the “Time at which elution from the outer (rapidly eluting) layer ceased” value in data set [3] (stent coated from 20% aqueous dye solution, after immersion into water) is reported as not above 60 min. Further, the “Time at which elution from the inner (slowly eluting) layer began” value in data set [3] (stent coated from 20% dye in Bionate 80A, after immersion into water) came out at 60 min. The “Duration of elution from the inner (slowly eluting) layer” value in data set [3] (stent coated from 20% dye in Bionate 80A, immersion into water) is on record as “up to one month”. Also, in data set [2] (angiography, 4 weeks after implantation of dye-coated stents, vs stents without dye), the “Percentage stenosis of the stented coronary segments” value was “significantly smaller”. The “Angioscopic appearance of stenosis of the stented coronary segment” value in data set [2] (angioscopy, 4 weeks after stent implantation) was “stenosis was mild”. For the same compound, in data set [2], the “Number of cells (250 × 250 μm^2), Adventitia” value is reported as 17.0 ± 7.1 /250 × 250 μm^2; the “Number of cells (250 × 250 μm^2), Intima” value was 7.1 ± 3.2 /250 × 250 μm^2; the “Number of cells (250 × 250 μm^2), Media” value was 8.0 ± 4.0 /250 × 250 μm^2. In addition, the “Migration of circulating vascular progenitor cells into the injured coronary wall” value in data set [4] was “no migration of the cells was observed; also recorded: inhibit migration”.
